The source of these data is PubChem BioAssay AID272 (DTP/NCI, 2004).

Values joined by “and” are separate entries in the source; they are usually repeats but may differ in a detail not shown here. Equal entries are not always repeated. Records with an inconclusive call do not appear.

This test concerns Lewis lung carcinoma i.m., BDF1 mice, T/C %. The experiment in a line: NCI In Vivo Anticancer Drug Screen. Data for tumor model Lewis Lung Carcinoma (intramuscular) in B6D2F1 (BDF1) mice. To be noted: schedule: Q01DX011 (ip). Here is the method: The antitumor activity of compounds was measured in mice bearing transplantable tumors. Survival or tumor size were measured and the results are expressed as the measurement made in the treated group (T) divided by the measurement made in the vehicle treated control group (C). The tumor model used in this assay is Lewis Lung Carcinoma (intramuscular) in B6D2F1 (BDF1) mice

As for `Nc1ncn(C2OC(CO)C(O)C2O)c(=O)n1` (centres undefined), the T/C (endpoint: mean tumor weight, dose: 0.19 mg/kg/injection, vehicle: saline, higher = larger tumour) is 105 % of control; the T/C (endpoint: mean tumor weight, dose: 0.38 mg/kg/injection, vehicle: saline, higher = larger tumour) is 82 % of control; the T/C (endpoint: median survival time, dose: 0.1 mg/kg/injection, vehicle: saline, higher = longer survival) is 93 % of control; the T/C (endpoint: median survival time, dose: 0.19 mg/kg/injection, vehicle: saline, higher = longer survival) is 104 % of control; the T/C (endpoint: median survival time, dose: 0.2 mg/kg/injection, vehicle: saline, higher = longer survival) was 106 % of control and 109 % of control; the T/C (endpoint: median survival time, dose: 0.38 mg/kg/injection, vehicle: saline, higher = longer survival) was 90 % of control and 110 % of control. Besides, the T/C runs as follows: (endpoint: median survival time, dose: 0.4 mg/kg/injection, vehicle: saline, higher = longer survival) 105 % of control and 124 % of control; (endpoint: median survival time, dose: 0.75 mg/kg/injection, vehicle: saline, higher = longer survival) 112 % of control; (endpoint: median survival time, dose: 0.8 mg/kg/injection, vehicle: saline, higher = longer survival) 106 % of control; (endpoint: median survival time, dose: 1.5 mg/kg/injection, vehicle: saline, higher = longer survival) 108 % of control.
`CCCCCCCCCCCCCC[n+]1ccccc1`: the T/C was 82 % of control (endpoint: mean tumor weight (est.), dose: 0.06 mg/kg/injection, vehicle: saline, higher = larger tumour); 46 % of control (endpoint: mean tumor weight (est.), dose: 0.07 mg/kg/injection, vehicle: saline, higher = larger tumour); 80 % of control (endpoint: mean tumor weight (est.), dose: 0.12 mg/kg/injection, vehicle: saline, higher = larger tumour); 42 % of control (endpoint: mean tumor weight (est.), dose: 0.13 mg/kg/injection, vehicle: saline, higher = larger tumour); 84 % of control (endpoint: mean tumor weight (est.), dose: 0.5 mg/kg/injection, vehicle: saline, higher = larger tumour); 100 % of control (endpoint: median survival time, dose: 0.06 mg/kg/injection, vehicle: saline, higher = longer survival). Moreover, the T/C (endpoint: median survival time, dose: 0.07 mg/kg/injection, vehicle: saline, higher = longer survival) was 93 % of control; the T/C (endpoint: median survival time, dose: 0.12 mg/kg/injection, vehicle: saline, higher = longer survival) was 100 % of control; the T/C (endpoint: median survival time, dose: 0.13 mg/kg/injection, vehicle: saline, higher = longer survival) is 100 % of control; the T/C (endpoint: median survival time, dose: 0.25 mg/kg/injection, vehicle: saline, higher = longer survival) was 91 % of control and 94 % of control; the T/C (endpoint: median survival time, dose: 0.5 mg/kg/injection, vehicle: saline, higher = longer survival) is 100 % of control.
As for `O=C1CCCN1.O=C1CCCN1.[Br][Co][Br]`, the T/C runs as follows: (endpoint: mean tumor weight, dose: 37.5 mg/kg/injection, vehicle: water, higher = larger tumour) 84 % of control; (endpoint: mean tumor weight, dose: 75.0 mg/kg/injection, vehicle: water, higher = larger tumour) 65 % of control; (endpoint: median survival time, dose: 37.5 mg/kg/injection, vehicle: water, higher = longer survival) 95 % of control; (endpoint: median survival time, dose: 75.0 mg/kg/injection, vehicle: water, higher = longer survival) 110 % of control.
On to `COc1cc(OC)c(OC)cc1/C=C\c1ccnc2ccccc12`, for which the T/C by setting is: (endpoint: mean tumor weight (est.), dose: 50.0 mg/kg/injection, vehicle: saline with Tween-80, higher = larger tumour) 60 % of control; (endpoint: mean tumor weight (est.), dose: 100.0 mg/kg/injection, vehicle: saline with Tween-80, higher = larger tumour) 51 % of control; (endpoint: mean tumor weight (est.), dose: 200.0 mg/kg/injection, vehicle: saline with Tween-80, higher = larger tumour) 56 % of control; (endpoint: mean tumor weight (est.), dose: 400.0 mg/kg/injection, vehicle: saline with Tween-80, higher = larger tumour) 34 % of control; (endpoint: median survival time, dose: 50.0 mg/kg/injection, vehicle: saline with Tween-80, higher = longer survival) 105 % of control; (endpoint: median survival time, dose: 100.0 mg/kg/injection, vehicle: saline with Tween-80, higher = longer survival) 103 % of control. Also, the T/C is 86 % of control (endpoint: median survival time, dose: 200.0 mg/kg/injection, vehicle: saline with Tween-80, higher = longer survival) and 100 % of control (endpoint: median survival time, dose: 400.0 mg/kg/injection, vehicle: saline with Tween-80, higher = longer survival).
For `O=C(CCBr)N1CCN(C(=O)CCBr)CC1`, the T/C (endpoint: mean tumor weight, dose: 50.0 mg/kg/injection, vehicle: steriod suspending solution, higher = larger tumour) was 73 % of control; the T/C (endpoint: mean tumor weight, dose: 100.0 mg/kg/injection, vehicle: steriod suspending solution, higher = larger tumour) was 73 % of control; the T/C (endpoint: mean tumor weight, dose: 200.0 mg/kg/injection, vehicle: steriod suspending solution, higher = larger tumour) was 37 % of control.
For the compound `C1OC1CN1CCN(CC2CO2)CC1` (centres undefined), the T/C was 83 % of control (endpoint: mean tumor weight (est.), dose: 1.0 mg/kg/injection, vehicle: saline, higher = larger tumour); 65 % of control (endpoint: mean tumor weight (est.), dose: 2.0 mg/kg/injection, vehicle: saline, higher = larger tumour); 74 % of control (endpoint: mean tumor weight (est.), dose: 4.0 mg/kg/injection, vehicle: saline, higher = larger tumour); 71 % of control (endpoint: mean tumor weight (est.), dose: 8.0 mg/kg/injection, vehicle: saline, higher = larger tumour); 63 % of control (endpoint: mean tumor weight (est.), dose: 16.0 mg/kg/injection, vehicle: saline, higher = larger tumour); 96 % of control (endpoint: median survival time, dose: 2.0 mg/kg/injection, vehicle: saline, higher = longer survival). The T/C is 105 % of control (endpoint: median survival time, dose: 4.0 mg/kg/injection, vehicle: saline, higher = longer survival) and 106 % of control (endpoint: median survival time, dose: 16.0 mg/kg/injection, vehicle: saline, higher = longer survival).
